Experimental data taken from patent US5190741A, “Agents for diagnosing and treating melanomas, aromatic halogenated derivatives usable as such agents and their preparation” (Institut National de la Sante et de la Recherche Medicale …, priority 1989, dated 1993).
Read-outs that look alike come from different tables or passages of the source.

Tests used:
[1] = system: 6 weeks old OF 1 male mice; assay: LD50 determination, i.v. (Karber and Behrens); conditions: mouse, in vivo, iv
Excerpt: (§1) The determination of the LD50 is made in the mouse after i.v. injection of the molecules according to the methodology described by Karber and Behrens.
(§2) 6 weeks old OF 1 male mice

[2] = LD50 determination, i.v. (Karber and Behrens); conditions: mouse, in vivo, iv
Excerpt: as §1, §2

[3] = system: Beu melanic human melanoma; assay: Scintillation imaging, nu/nu SSCUP nude mice bearing Beu; assay type: in vivo; conditions: 3 to 17 h after injection
Excerpt: (§3) The mice bearing grafted tumors are anesthetized by the i.p. injection of sodium pentobarbital 1/5 and immobilized under a scintillation camera (Gammatome II, CGR) equipped with a pinhole 3-360 collimator, sensitivity 3.2 10^-4.
nu/nu SSCUP nudes bearing human melanomas Beu and Dau.
(§4) The scanning observations have also been carried out after the injection of B into the following mice:
nu/nu SSCUP nudes bearing the Beu heterotransplant.

[4] = system: Beu melanic human melanoma; assay: Autoradiograms, nu/nu SSCUP nude mice bearing Beu; assay type: in vivo
Description: (§5) The autoradiograms are carried out in mice bearing grafted melanomas:
b. nu/nu SSCUP nudes bearing heterotransplants of melanic (Beu) or amelanic (Dau) human melanomas).
(§6) The animals bearing grafted tumors receive the labelled compounds in the form of the hydrochloride in saline solution (3.7 to 5×10^5 Bq/animal) in a caudal vein. At different time intervals after the administration of the compounds (from 15 minutes to 24 hours) the mice are anesthetized with ether and plunged into liquid nitrogen.
(§7) 30 μm sections, parallel to a sagittal plane, are prepared in a freezing microtome (TS 260, SLEE) according to the protocol described by Ullberg.

[5] = Tissue distribution in Swiss nu/nu SSCUP mice bearing Dau; assay type: in vivo, human; conditions: mouse, iv, 3 umol/animal
Description: The study of the tissue distribution of the ^125 I labelled compounds was performed in mice bearing grafted melanomas (cf. autoradiograms above). […] The animals are sacrificed at different time intervals of 1 to 24 hours after the injection. The blood is collected and the principal organs are excised. Aliquots are weighed and the radioactivity of the samples is measured in a […] 1191 counter (analytic tracer). The counting yield for iodine 125 is 60%. The results are expressed: as a percentage of the injected dose bound per g of tissue (% ID/g); in the form of the ratios [formula] This ratio reflects more precisely the selectivity of a molecule for an organ (tables 2, 4, 6, 8, 10 and 12).

[6] = system: B16 melanoma; assay: Scintillation imaging, C57 BL6 mice bearing B16; assay type: in vivo, mouse; conditions: 3 to 17 h after injection
Excerpt: as §3
C57 BL6 bearing B16 melanomas at different stages of development.
as §4
C57 BL6 bearing the B16 melanoma

[7] = system: B16 murine melanoma; assay: Autoradiograms, C57 BL6 mice bearing B16; assay type: in vivo, mouse
Description: as §5
a. C57 BL6 bearing the B16 murine melanoma.
as §6, §7

[8] = intestine, read-out: intestine % ID/g
[9] = kidney, read-out: kidney % ID/g
[10] = muscle, read-out: muscle % ID/g
[11] = pancreas, read-out: pancreas % ID/g
[12] = plasma, read-out: plasma % ID/g
[13] = spleen, read-out: spleen % ID/g
[14] = stomach, read-out: stomach % ID/g
[15] = submaxillary glands, read-out: submaxillary glands % ID/g

Compound: CCNCCNC(=O)c1ccc(I)cc1 [Derivative B, N-(2-ethylaminoethyl) 4-iodo benzamide]
- LD 0 [1]: 150 mg/kg
- LD 100 [1]: 200 mg/kg
- LD50 [2]: 175 mg/kg
- tumoral definition [3]: very good tumoral definition
- darkening along the circumference of the tumor ([4]; 6 h after injection): more pronounced darkening along the circumference of the tumor
- time up to which tumor is visible on autoradiogram ([4]; after injection): up to 6 h
- tissue uptake at 1 h ([5]; blood, read-out: blood % ID/g): 0.89 %ID/g
- tissue uptake at 2 h ([5]; blood, read-out: blood % ID/g): 0.93 %ID/g
- tissue uptake at 4 h ([5]; blood, read-out: blood % ID/g): 0.3 %ID/g
- tissue uptake at 6 h ([5]; blood, read-out: blood % ID/g): 0.53 %ID/g
- tissue uptake at 24 h ([5]; blood, read-out: blood % ID/g): 0.009 %ID/g
- tissue uptake at 8 h ([5]; blood, read-out: blood % ID/g): 0.11 %ID/g
- tissue uptake at 12 h ([5]; blood, read-out: blood % ID/g): 0.015 %ID/g
- tissue uptake at 1 h ([5]; brain, read-out: brain % ID/g): 1.28 %ID/g
- tissue uptake at 2 h ([5]; brain, read-out: brain % ID/g): 1.25 %ID/g
- tissue uptake at 4 h ([5]; brain, read-out: brain % ID/g): 0.63 %ID/g
- tissue uptake at 6 h ([5]; brain, read-out: brain % ID/g): 0.22 %ID/g
- tissue uptake at 24 h ([5]; brain, read-out: brain % ID/g): 0.002 %ID/g
- tissue uptake at 8 h ([5]; brain, read-out: brain % ID/g): 0.14 %ID/g
- tissue uptake at 12 h ([5]; brain, read-out: brain % ID/g): 0.01 %ID/g
- tissue uptake at 1 h ([5]; eye, read-out: eye % ID/g): 0.51 %ID/g
- tissue uptake at 2 h ([5]; eye, read-out: eye % ID/g): 0.5 %ID/g
- tissue uptake at 4 h ([5]; eye, read-out: eye % ID/g): 0.21 %ID/g
- tissue uptake at 6 h ([5]; eye, read-out: eye % ID/g): 0.19 %ID/g
- tissue uptake at 24 h ([5]; eye, read-out: eye % ID/g): 0.008 %ID/g
- tissue uptake at 8 h ([5]; eye, read-out: eye % ID/g): 0.06 %ID/g
- tissue uptake at 12 h ([5]; eye, read-out: eye % ID/g): 0.01 %ID/g
- tissue uptake at 1 h [5, 8]: 3.1 %ID/g
- tissue uptake at 2 h [5, 8]: 2.57 %ID/g
- tissue uptake at 4 h [5, 8]: 1.19 %ID/g
- tissue uptake at 6 h [5, 8]: 1.05 %ID/g
- tissue uptake at 8 h [5, 8]: 0.36 %ID/g
- tissue uptake at 12 h [5, 8]: 0.05 %ID/g
- tissue uptake at 24 h [5, 8]: 0.01 %ID/g
- tissue uptake at 1 h [5, 9]: 8.15 %ID/g
- tissue uptake at 2 h [5, 9]: 6.17 %ID/g
- tissue uptake at 4 h [5, 9]: 2.51 %ID/g
- tissue uptake at 6 h [5, 9]: 1.07 %ID/g
- tissue uptake at 24 h [5, 9]: 0.04 %ID/g
- tissue uptake at 8 h [5, 9]: 0.42 %ID/g
- tissue uptake at 12 h [5, 9]: 0.08 %ID/g
- tissue uptake at 1 h ([5]; liver, read-out: liver % ID/g): 4.95 %ID/g
- tissue uptake at 2 h ([5]; liver, read-out: liver % ID/g): 3.16 %ID/g
- tissue uptake at 4 h ([5]; liver, read-out: liver % ID/g): 1.52 %ID/g
- tissue uptake at 6 h ([5]; liver, read-out: liver % ID/g): 0.74 %ID/g
- tissue uptake at 24 h ([5]; liver, read-out: liver % ID/g): 0.19 %ID/g
- tissue uptake at 8 h ([5]; liver, read-out: liver % ID/g): 0.63 %ID/g
- tissue uptake at 12 h ([5]; liver, read-out: liver % ID/g): 0.2 %ID/g
- tissue uptake at 1 h ([5]; lungs, read-out: lungs % ID/g): 5.35 %ID/g
- tissue uptake at 2 h ([5]; lungs, read-out: lungs % ID/g): 5.56 %ID/g
- tissue uptake at 4 h ([5]; lungs, read-out: lungs % ID/g): 2.63 %ID/g
- tissue uptake at 6 h ([5]; lungs, read-out: lungs % ID/g): 0.93 %ID/g
- tissue uptake at 8 h ([5]; lungs, read-out: lungs % ID/g): 0.43 %ID/g
- tissue uptake at 12 h ([5]; lungs, read-out: lungs % ID/g): 0.04 %ID/g
- tissue uptake at 24 h ([5]; lungs, read-out: lungs % ID/g): 0.02 %ID/g
- tissue uptake at 1 h [5, 10]: 1.04 %ID/g
- tissue uptake at 2 h [5, 10]: 6.86 %ID/g
- tissue uptake at 4 h [5, 10]: 0.41 %ID/g
- tissue uptake at 6 h [5, 10]: 0.12 %ID/g
- tissue uptake at 24 h [5, 10]: 0.002 %ID/g
- tissue uptake at 8 h [5, 10]: 0.07 %ID/g
- tissue uptake at 12 h [5, 10]: 0.008 %ID/g
- tissue uptake at 1 h [5, 11]: 2.86 %ID/g
- tissue uptake at 2 h [5, 11]: 2.13 %ID/g
- tissue uptake at 4 h [5, 11]: 0.83 %ID/g
- tissue uptake at 6 h [5, 11]: 0.4 %ID/g
- tissue uptake at 8 h [5, 11]: 0.14 %ID/g
- tissue uptake at 12 h [5, 11]: 0.08 %ID/g
- tissue uptake at 24 h [5, 11]: 0.01 %ID/g
- tissue uptake at 1 h [5, 12]: 0.71 %ID/g
- tissue uptake at 2 h [5, 12]: 0.85 %ID/g
- tissue uptake at 4 h [5, 12]: 0.28 %ID/g
- tissue uptake at 6 h [5, 12]: 0.61 %ID/g
- tissue uptake at 24 h [5, 12]: 0.009 %ID/g
- tissue uptake at 8 h [5, 12]: 0.13 %ID/g
- tissue uptake at 12 h [5, 12]: 0.02 %ID/g
- tissue uptake at 1 h [5, 13]: 2.54 %ID/g
- tissue uptake at 2 h [5, 13]: 2.02 %ID/g
- tissue uptake at 4 h [5, 13]: 0.62 %ID/g
- tissue uptake at 6 h [5, 13]: 0.33 %ID/g
- tissue uptake at 8 h [5, 13]: 0.14 %ID/g
- tissue uptake at 12 h [5, 13]: 0.05 %ID/g
- tissue uptake at 24 h [5, 13]: 0.09 %ID/g
- tissue uptake at 1 h [5, 14]: 2.38 %ID/g
- tissue uptake at 2 h [5, 14]: 3.03 %ID/g
- tissue uptake at 4 h [5, 14]: 1.23 %ID/g
- tissue uptake at 6 h [5, 14]: 2 ± 0.253 %ID/g
- tissue uptake at 8 h [5, 14]: 0.58 %ID/g
- tissue uptake at 12 h [5, 14]: 0.1 %ID/g
- tissue uptake at 24 h [5, 14]: 0.02 %ID/g
- tissue uptake at 1 h [5, 15]: 4.28 %ID/g
- tissue uptake at 2 h [5, 15]: 4.14 %ID/g
- tissue uptake at 4 h [5, 15]: 1.68 %ID/g
- tissue uptake at 6 h [5, 15]: 2.74 %ID/g
- tissue uptake at 8 h [5, 15]: 0.39 %ID/g
- tissue uptake at 12 h [5, 15]: 0.04 %ID/g
- tissue uptake at 24 h [5, 15]: 0.02 %ID/g
- tissue uptake at 1 h ([5]; tumor, read-out: tumor % ID/g): 1.19 %ID/g
- tissue uptake at 2 h ([5]; tumor, read-out: tumor % ID/g): 1.27 %ID/g
- tissue uptake at 4 h ([5]; tumor, read-out: tumor % ID/g): 0.93 %ID/g
- tissue uptake at 6 h ([5]; tumor, read-out: tumor % ID/g): 0.34 %ID/g
- tissue uptake at 24 h ([5]; tumor, read-out: tumor % ID/g): 0.007 %ID/g
- tissue uptake at 8 h ([5]; tumor, read-out: tumor % ID/g): 0.12 %ID/g
- tissue uptake at 12 h ([5]; tumor, read-out: tumor % ID/g): 0.02 %ID/g
- tumoral definition [6]: very good tumoral definition
- darkening of the film at the tumor ([7]; 1 h after injection): qualitatively as great as after the injection of A
- tumoral radioactive concentration (autoradiogram) ([7]; 4 h and particularly 6 h, compared with A): more intense tumoral radioactive concentration
- tumor visibility on autoradiogram ([7]; 24 h after i.v.): still visible
- radioactivity remaining in the organism ([7]; 24 h after injection): no radioactivity remains in the organism
